# Results reported in patent US8030443B2, “Squamous cell carcinoma antigen-derived peptide binding to HLA-A24 molecule” (Kurume University, priority 2005, dated 2011).
# Test system: peptide-specific IgG in sera of cancer patients and healthy donors
# Assay: Measurement of anti-peptide IgG in plasma by LUMINEX multiplexed flow cytometric assay
# Format: binding, human
# Procedure: The levels of anti-peptide immunoglobulin G (IgG) were measured by the LUMINEX™ system (multiplexed flow cytometric assay) as previously reported (Komatsu N, Shichijo S, Nakagawa M, Itoh K. New multiplexed flow cytometric assay to measure anti-peptide antibody: a novel tool for monitoring immune responses to peptides used for immunization. Scand J Clin Lab Invest 2004; 64:1-11). In brief, plasma was incubated with 25 μl of peptide-coupled color-coded beads for 2 hr at room temperature on a plate shaker. After incubation, the mixture was washed with a vacuum manifold apparatus and incubated with 100 μl of biotinylated goat anti-human IgG (γ chain-specific)(BA-3080, Vector Laboratories, Burlingame, Calif., USA) for 1 h at room temperature. The plate was then washed, followed by the addition of 100 μl of streptavidin-PE (S-866, Molecular Probes, Eugene, Oreg., USA) into wells, and was incubated for 30 min at room temperature on a plate shaker. The bound beads were washed three times followed by the addition of 100 μl of Tween-PBS into each well. Fifty μl of sample was detected using the LUMINEX™ system (multiplexed flow cytometric assay). To confirm the specificity of IgG to a SCCA peptide, sample plasma was cultured in plates coated with a corresponding SCCA peptide, or with an irrelevant SCCA peptide. After the operation was repeated three times, the levels of the corresponding SCCA peptide-specific IgG in the resulting supernatant were determined by the LUMINEX™ system (multiplexed flow cytometric assay).
# These 9 SCCA-derived peptides were screened based on their ability to be recognized by IgG in cancer patients. Peptide-specific IgG was measured by a multiplexed flow cytometric assay (LUMINEX™ (multiplexed flow cytometric assay)). The plasma samples were derived from 35 uterine cervical SCC patients, 10 breast adenocarcinoma patients, 10 pancreatic adenocarcinoma patients, 10 gastric adenocarcinoma, and 6 colon adenocarcinoma patients. The level of fluorescence intensity was judged to be significant when exceeded 100 at an 1/100 dilution.
sequence,measurement,setting,value
"AYELKIANKL (SCCA 98-107 peptide) [SCCA-derived peptide, position 98-107]",Total: healthy donors with significant peptide-reactive IgG / donors tested,"10 healthy donors, significant when fluorescence intensity exceeded 100 at 1/100 dilution",1/10
same,Total: cancer patients with significant peptide-reactive IgG / patients tested,"71 cancer patients, significant when fluorescence intensity exceeded 100 at 1/100 dilution",12/71
same,Fluorescence intesity,"serum of Breast Ca. patient #36, 1:100 dilution",44
same,Fluorescence intesity,"serum of Breast Ca. patient #37, 1:100 dilution",18
same,Fluorescence intesity,"serum of Breast Ca. patient #38, 1:100 dilution",12
same,Fluorescence intesity,"serum of Breast Ca. patient #39, 1:100 dilution",20
same,Fluorescence intesity,"serum of Breast Ca. patient #40, 1:100 dilution",10
same,Fluorescence intesity,"serum of Breast Ca. patient #41, 1:100 dilution",214
same,Fluorescence intesity,"serum of Breast Ca. patient #42, 1:100 dilution",12
same,Fluorescence intesity,"serum of Breast Ca. patient #43, 1:100 dilution",12
same,Fluorescence intesity,"serum of Breast Ca. patient #44, 1:100 dilution",0
same,Fluorescence intesity,"serum of Breast Ca. patient #45, 1:100 dilution",18
same,Fluorescence intesity,"serum of Colon Ca. patient #66, 1:100 dilution",0
same,Fluorescence intesity,"serum of Colon Ca. patient #67, 1:100 dilution",0
same,Fluorescence intesity,"serum of Colon Ca. patient #68, 1:100 dilution",0
same,Fluorescence intesity,"serum of Colon Ca. patient #69, 1:100 dilution",0
same,Fluorescence intesity,"serum of Colon Ca. patient #70, 1:100 dilution",0
same,Fluorescence intesity,"serum of Colon Ca. patient #71, 1:100 dilution",26
same,Fluorescence intesity,"serum of Gastric Ca. patient #56, 1:100 dilution",2
same,Fluorescence intesity,"serum of Gastric Ca. patient #57, 1:100 dilution",0
same,Fluorescence intesity,"serum of Gastric Ca. patient #58, 1:100 dilution",0
same,Fluorescence intesity,"serum of Gastric Ca. patient #59, 1:100 dilution",15
same,Fluorescence intesity,"serum of Gastric Ca. patient #60, 1:100 dilution",1
same,Fluorescence intesity,"serum of Gastric Ca. patient #61, 1:100 dilution",8
same,Fluorescence intesity,"serum of Gastric Ca. patient #62, 1:100 dilution",0
same,Fluorescence intesity,"serum of Gastric Ca. patient #63, 1:100 dilution",0
same,Fluorescence intesity,"serum of Gastric Ca. patient #64, 1:100 dilution",0
same,Fluorescence intesity,"serum of Gastric Ca. patient #65, 1:100 dilution",0
same,Fluorescence intesity,"serum of Healthy Donor #1, 1:100 dilution",0
same,Fluorescence intesity,"serum of Healthy Donor #2, 1:100 dilution",35
same,Fluorescence intesity,"serum of Healthy Donor #3, 1:100 dilution",0
same,Fluorescence intesity,"serum of Healthy Donor #4, 1:100 dilution",0
same,Fluorescence intesity,"serum of Healthy Donor #5, 1:100 dilution",0
same,Fluorescence intesity,"serum of Healthy Donor #6, 1:100 dilution",0
same,Fluorescence intesity,"serum of Healthy Donor #7, 1:100 dilution",0
same,Fluorescence intesity,"serum of Healthy Donor #8, 1:100 dilution",361
same,Fluorescence intesity,"serum of Healthy Donor #9, 1:100 dilution",39
same,Fluorescence intesity,"serum of Healthy Donor #10, 1:100 dilution",0
same,Fluorescence intesity,"serum of Pancreas Ca. patient #46, 1:100 dilution",0
same,Fluorescence intesity,"serum of Pancreas Ca. patient #47, 1:100 dilution",6
same,Fluorescence intesity,"serum of Pancreas Ca. patient #48, 1:100 dilution",369
same,Fluorescence intesity,"serum of Pancreas Ca. patient #49, 1:100 dilution",0
same,Fluorescence intesity,"serum of Pancreas Ca. patient #50, 1:100 dilution",0
same,Fluorescence intesity,"serum of Pancreas Ca. patient #51, 1:100 dilution",0
same,Fluorescence intesity,"serum of Pancreas Ca. patient #52, 1:100 dilution",100
same,Fluorescence intesity,"serum of Pancreas Ca. patient #53, 1:100 dilution",0
same,Fluorescence intesity,"serum of Pancreas Ca. patient #54, 1:100 dilution",0
same,Fluorescence intesity,"serum of Pancreas Ca. patient #55, 1:100 dilution",0
same,Fluorescence intesity,"serum of Uterine cervical Ca. patient #1, 1:100 dilution",11
same,Fluorescence intesity,"serum of Uterine cervical Ca. patient #2, 1:100 dilution",0
same,Fluorescence intesity,"serum of Uterine cervical Ca. patient #3, 1:100 dilution",0
same,Fluorescence intesity,"serum of Uterine cervical Ca. patient #4, 1:100 dilution",0
same,Fluorescence intesity,"serum of Uterine cervical Ca. patient #5, 1:100 dilution",0
same,Fluorescence intesity,"serum of Uterine cervical Ca. patient #6, 1:100 dilution",1226
same,Fluorescence intesity,"serum of Uterine cervical Ca. patient #7, 1:100 dilution",26
same,Fluorescence intesity,"serum of Uterine cervical Ca. patient #8, 1:100 dilution",26
same,Fluorescence intesity,"serum of Uterine cervical Ca. patient #9, 1:100 dilution",58
same,Fluorescence intesity,"serum of Uterine cervical Ca. patient #10, 1:100 dilution",14
same,Fluorescence intesity,"serum of Uterine cervical Ca. patient #11, 1:100 dilution",33
same,Fluorescence intesity,"serum of Uterine cervical Ca. patient #12, 1:100 dilution",33
same,Fluorescence intesity,"serum of Uterine cervical Ca. patient #13, 1:100 dilution",397
same,Fluorescence intesity,"serum of Uterine cervical Ca. patient #14, 1:100 dilution",26
same,Fluorescence intesity,"serum of Uterine cervical Ca. patient #15, 1:100 dilution",136
same,Fluorescence intesity,"serum of Uterine cervical Ca. patient #16, 1:100 dilution",145
same,Fluorescence intesity,"serum of Uterine cervical Ca. patient #17, 1:100 dilution",72
same,Fluorescence intesity,"serum of Uterine cervical Ca. patient #18, 1:100 dilution",71
same,Fluorescence intesity,"serum of Uterine cervical Ca. patient #19, 1:100 dilution",92
same,Fluorescence intesity,"serum of Uterine cervical Ca. patient #20, 1:100 dilution",85
same,Fluorescence intesity,"serum of Uterine cervical Ca. patient #21, 1:100 dilution",28
same,Fluorescence intesity,"serum of Uterine cervical Ca. patient #22, 1:100 dilution",28
same,Fluorescence intesity,"serum of Uterine cervical Ca. patient #23, 1:100 dilution",82
same,Fluorescence intesity,"serum of Uterine cervical Ca. patient #24, 1:100 dilution",2650
same,Fluorescence intesity,"serum of Uterine cervical Ca. patient #25, 1:100 dilution",17
same,Fluorescence intesity,"serum of Uterine cervical Ca. patient #26, 1:100 dilution",166
same,Fluorescence intesity,"serum of Uterine cervical Ca. patient #27, 1:100 dilution",33
same,Fluorescence intesity,"serum of Uterine cervical Ca. patient #28, 1:100 dilution",139
same,Fluorescence intesity,"serum of Uterine cervical Ca. patient #29, 1:100 dilution",21
same,Fluorescence intesity,"serum of Uterine cervical Ca. patient #30, 1:100 dilution",50
same,Fluorescence intesity,"serum of Uterine cervical Ca. patient #31, 1:100 dilution",107
same,Fluorescence intesity,"serum of Uterine cervical Ca. patient #32, 1:100 dilution",18
same,Fluorescence intesity,"serum of Uterine cervical Ca. patient #33, 1:100 dilution",191
same,Fluorescence intesity,"serum of Uterine cervical Ca. patient #34, 1:100 dilution",17
same,Fluorescence intesity,"serum of Uterine cervical Ca. patient #35, 1:100 dilution",21
